Consider nine molecules from patent US9062027B2, “Carboxamide compounds and their use as calpain inhibitors V” (AbbVie Deutschland GmbH & Co. KG, priority 2010, dated 2015).

One series deals with T1, calpain-I (Homo sapiens, UniProt P07384).
T1 construct: calpain-I—isolated from human erythrocytes; purchased Calbiochem 208713; host or cells: human erythrocytes (native tissue isolate)
T1 sequence (P07384 1-714): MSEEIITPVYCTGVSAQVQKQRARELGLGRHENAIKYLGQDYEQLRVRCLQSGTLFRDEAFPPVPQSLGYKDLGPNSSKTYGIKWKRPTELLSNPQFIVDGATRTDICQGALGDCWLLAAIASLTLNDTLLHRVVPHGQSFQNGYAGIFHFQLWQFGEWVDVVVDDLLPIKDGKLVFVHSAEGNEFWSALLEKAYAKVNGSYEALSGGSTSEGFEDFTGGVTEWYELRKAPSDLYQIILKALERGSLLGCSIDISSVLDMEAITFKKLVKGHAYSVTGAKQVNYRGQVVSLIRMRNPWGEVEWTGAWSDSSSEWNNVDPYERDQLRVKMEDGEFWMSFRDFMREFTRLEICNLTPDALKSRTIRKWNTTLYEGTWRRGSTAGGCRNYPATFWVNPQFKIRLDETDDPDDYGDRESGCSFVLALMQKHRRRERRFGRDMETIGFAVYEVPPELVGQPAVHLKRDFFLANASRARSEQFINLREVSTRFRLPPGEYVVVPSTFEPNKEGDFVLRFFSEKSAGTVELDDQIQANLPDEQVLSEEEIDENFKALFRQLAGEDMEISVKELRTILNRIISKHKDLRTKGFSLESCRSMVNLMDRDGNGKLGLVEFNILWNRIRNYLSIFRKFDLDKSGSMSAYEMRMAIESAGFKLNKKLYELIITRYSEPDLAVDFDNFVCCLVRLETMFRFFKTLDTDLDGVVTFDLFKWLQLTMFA
T1 sequence (P04632 1-268 partner): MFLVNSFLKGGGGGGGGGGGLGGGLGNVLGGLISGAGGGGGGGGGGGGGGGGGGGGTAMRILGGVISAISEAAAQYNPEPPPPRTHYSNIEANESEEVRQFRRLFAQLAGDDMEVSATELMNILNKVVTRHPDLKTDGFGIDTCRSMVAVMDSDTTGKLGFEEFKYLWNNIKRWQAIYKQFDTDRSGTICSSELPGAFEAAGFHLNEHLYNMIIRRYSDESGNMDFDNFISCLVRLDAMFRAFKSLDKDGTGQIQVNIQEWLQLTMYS
Description: Calpain I enzyme inhibition in vitro (kinetic fluorescence assay). The class given is biochemical. The note with it: apparent Ki from IC50 by Cheng-Prussoff; calpain-I from human erythrocytes, pH 7.3. How it is done: Testing for blockade of the corresponding enzymic activities was carried out by means of kinetic fluorescence assays (excitation 390 nm, emission 460 nm).
Apparent Ki values were calculated from the experimentally determined IC50 values by the Cheng-Prussoff relation assuming a reversible competitive enzyme inhibition.
20 nM calpain-I—isolated from human erythrocytes (Calbiochem #208713), 100 μM Suc-Leu-Tyr-AMC (Bachem #I-1355) as substrate in buffer with 62 mM imidazole, 0.3 mM CaCl2, 0.10% CHAPS, 0.05% BSA, 1 mM DTT at pH 7.3 and room temperature.
For `CONC(=O)C(=O)C(Cc1ccccc1)NC(=O)c1cccnc1-n1cc2cc(F)ccc2n1` (stereo not drawn) [Example 7, 2-(5-Fluoro-2H-indazol-2-yl)-N-[4-(methoxyamino)-3,4-dioxo-1-phenyl-2-butanyl]-3-pyridinecarboxamide], the Ki is < 0.25 µM.

Consider `CONC(=O)C(=O)C(Cc1ccccc1)NC(=O)c1cccnc1-n1cc2ccc(F)cc2n1` (stereo not drawn) [Example 8, 2-(6-Fluoro-2H-indazol-2-yl)-N-[4-(methoxyamino)-3,4-dioxo-1-phenyl-2-butanyl]-3-pyridinecarboxamide], for which the Ki fell in the range of 0.25 to 0.4 µM.

Take `O=C(NC1CC1)C(=O)C(Cc1ccccc1)NC(=O)c1cccnc1-n1cc2ccccc2n1` (stereo not drawn) [Example 1, N-[4-(Cyclopropylamino)-3,4-dioxo-1-phenylbutan-2-yl]-2-(2H-indazol-2-yl)nicotinamide]: the Ki fell in the range of 0.4 to 0.8 µM.

`CCNC(=O)C(=O)C(Cc1ccccc1)NC(=O)c1cccnc1-n1cc2ccccc2n1` (stereo not drawn) [Example 2, N-[4-(Ethylamino)-3,4-dioxo-1-phenyl-2-butanyl]-2-(2H-indazol-2-yl)nicotinamide]: the “Calpain activity (Ki(calpain))” value is given as “∘”.

With `CONC(=O)C(=O)C(Cc1ccccc1)NC(=O)c1cccnc1-n1cc2ccccc2n1` (stereo not drawn) [Example 3, 2-(2H-Indazol-2-yl)-N-[4-(methoxyamino)-3,4-dioxo-1-phenyl-2-butanyl]nicotinamide], the Ki is < 0.25 µM.

As to `CCONC(=O)C(=O)C(Cc1ccccc1)NC(=O)c1cccnc1-n1cc2ccccc2n1` (stereo not drawn) [Example 4, N-[4-(Ethoxyamino)-3,4-dioxo-1-phenyl-2-butanyl]-2-(2H-indazol-2-yl)nicotinamide], the Ki was < 0.25 µM.

Turning to `CONC(=O)C(=O)C(Cc1ccccc1)NC(=O)c1cccnc1-n1cc2ccc(C(F)(F)F)cc2n1` (stereo not drawn) [Example 9, N-[4-(Methoxyamino)-3,4-dioxo-1-phenyl-2-butanyl]-2-[6-(trifluoromethyl)-2H-indazol-2-yl]-3-pyridinecarboxamide], the Ki is < 0.25 µM.

Turning to `O=C(NC1CC1)C(=O)C(Cc1ccccc1)NC(=O)c1cccnc1-n1cc2c(n1)CCCC2` (stereo not drawn) [Example 5, N-[4-(Cyclopropylamino)-3,4-dioxo-1-phenyl-2-butanyl]-2-(4,5,6,7-tetrahydro-2H-indazol-2-yl)nicotinamide], the Ki is 0.4 to 0.8 µM.

System in another series: not listed separately
Description: In-vivo pharmacokinetics and metabolite to parent ratio in plasma of cynomolgus monkeys. Particulars: cynomolgus monkey, female cynomolgus monkeys, 3 mg/kg oral versus 1 mg/kg intravenous.
Description: The tested compounds were prepared as a solution for either intravenous or oral administration to groups of female cynomolgus monkeys. For intravenous dosing, the compounds were prepared in a 10% DMSO/PEG-400 vehicle at a concentration of 2 mg/ml. For oral dosing, the compounds were prepared in a lipid based vehicle at a concentration of 3 mg/ml. Groups of three monkeys received either a 1 mg/kg (0.5 ml/kg) intravenous dose or a 3 mg/kg (1 ml/kg) oral dose. The intravenous dose was administered as a slow bolus in a saphenous vein; the oral dose was administered by gastric intubation and was followed by ˜5 ml water. […] The samples were reconstituted with an aliquot of mobile phase, followed by quantification by HPLC-MS/MS. Standard curves for both parent and the selected metabolites were prepared from authentic standards in blank monkey plasma; standards were analyzed simultaneously with the samples. The plasma concentration of each sample was calculated by least squares linear regression analysis of the peak area ratio (parent or metabolite/internal standard) of the spiked plasma standards versus concentration.
Peak plasma concentrations (Cmax) and the time to peak plasma concentration (Tmax) were read directly from the plasma concentration data for each monkey. […] The apparent total plasma clearance (CLp) was calculated by dividing the administered dose by the AUC0-inf. […]
As for `NC(=O)C(=O)C(Cc1ccccc1)NC(=O)c1cccnc1-n1cc2ccccc2n1` (stereo not drawn) [comp. ex., N-(3-Amino-1-benzyl-2,3-dioxopropyl)-2-(2H-indazol-2-yl)nicotinamide], the bioavailability turned out to be 3%.
